# Test results reported in patent publication US20070098649A1, “Method and composition for controlling oral pathogens” (priority 2004, published 2007).
# Where two headings read alike, the source gives them in different places. Marks after values point to notes of the source that are not given here.
# Key:
# S. gordonii [1] = assay: Growth on agar with berberine and/or methylene blue (efflux screen); format: cell-based
# S. mutans [2] = assay: Relative cell surface hydrophobicity (hexanes partition); format: cell-based
# F. nucleatum [3] = assay: as above; format: cell-based
# F. nucleatum [4] = assay: Viability assessment (bactericidal activity); format: cell-based
# Procedure: (§1) Two representative organisms, S. mutans and F. nucleatum, were used in this study. […] Aliquots of 4 ml of agent, prepared in sterile water, were placed into sterile test tubes and 1 ml of adjusted cells was added. The control consisted of 4 ml of PBS and 1 ml of cells. Samples were removed at 0, 15, 30, and 60 minutes, serial dilutions were performed, and the appropriate dilutions plated out. The plates were incubated at 37° C. under appropriate atmospheric conditions for up to 72 hours. Viable colony counts were determined and compared to nontreated control Percentage kill was calculated using the formula: ([…]×100. Log reduction was also calculated on Log10 transformed data. Effect of Berberine on Cell Surface Hydrophobicity
# S. mutans [5] = assay: Viability assessment (bactericidal activity); format: cell-based
# Procedure: as §1
# S. gordonii [6] = assay: Relative cell surface hydrophobicity (hexanes partition); format: cell-based
# P. gingivalis = assay: as above; format: cell-based
# A. actinomycetemcomitans [7] = assay: as above; format: cell-based
# S. mutans [8] = assay: Growth on agar with berberine and/or methylene blue (efflux screen); format: cell-based
# A. actinomycetemcomitans [9] = assay: Accumulation of berberine, fluorimetric assay; format: cell-based; details: CCCP 100 μM added five minutes after berberine; FIG. 1
# Procedure: Accumulation of berberine in A. actinomycetemcomitans was evaluated using a fluorimetric assay (based in Giraud et al., 2000). Overnight cells were harvested as previously described, washed twice with 50 mM sodium phosphate buffer (pH 7), resuspended in the same buffer at a concentration of 1×10^9 CFU ml^−1. The cells were equilibrated for 10 minutes at 37° C. Berberine was added at a final concentration of 500 μg ml^−1. After addition of berberine, 0.5 ml samples were removed at different time intervals. Five minutes after the addition of berberine, the efflux pump inhibitor carbonyl cyanide m-chlorophenylhydrazone (CCCP) was added to the reaction mixture (final concentration 100 μM). The samples were immediately diluted with 1 ml ice-cold sodium phosphate buffer and then were centrifuged for 5 minutes at 560.0×g. The pellet was washed once with 1 ml ice-cold buffer and resuspended in 1 ml of 0.1 M glycine hydrochloride (pH 3) for at least 15 hours at room temperature. The fluorescence of the supernatant was measured (excitation 355 nm and emission 517 nm) with a spectrofluorimeter (Model 810/814, Photon Technology International, Monmouth Junction, N.J.).
# oral pathogens = assay: Combination determination, statements on the oral pathogens; format: cell-based; details: berberine hydrochloride / berberine (B-CG and B-S)
# Procedure: (§2) The alkaloids were tested in pair-wise combinations (fractional inhibitory concentrations, FIC) against all the bacteria to determine whether interactions were antagonistic (FIC>1), additive (0.5<FIC<1), or synergistic (FIC<0.5). The FIC was calculated by the following: (MIC Acombination/MIC Aalone)+(MIC Bcombination/MIC Balone). Where A represents compound 1 and B represents compound 2. […] In the case of A. actinomycetemcomitans and P. aeruginosa, CHX was used at 0.78 to 50 μg ml^−1. Berberine (B-CG and B-S) was used at concentrations 0.9 to 250 μg ml^−1. The antibacterial efficacy of berberine (1.95 to 500 μg ml^−1) was tested in combination against P. aeruginosa with CHX (0.78 to 50 μg ml^−1) (Sigma Chemicals) and the polymyxin antibiotic Col (0.04 to 25 μg ml^−1) (Sigma Chemicals). The plates were incubated for 24 hours.
# [10] = tested on: Actinobacillus actinomycetemcomitans; assay: MIC microdilution assay; format: cell-based; details: Aggregatibacter actinomycetemcomitans
# test bacteria = assay: Relative cell surface hydrophobicity, statements on the test bacteria; format: cell-based; details: summary of Table 12
# Escherichia coli [11] = assay: Combination determination (FIC, MIC in combination); format: cell-based; details: E. coli
# Procedure: as §2
# Porphymonas gingivalis [12] = assay: as above; format: cell-based; details: P. gingivalis
# Procedure: as §2
# Streptococcus gordonii [13] = assay: as above; format: cell-based; details: S. gordonii
# Procedure: as §2
# [14] = tested on: Actinobacillus actinomycetemcomitans; assay: as above; format: cell-based; details: A. actinomycetemcomitans grown under anaerobic conditions; berberine (B-CG) combined with CHX, Tet or Dox; MIC of the named agent in the combination
# Procedure: as §2
# Pseudomonas aeruginosa [15] = assay: as above; format: cell-based; details: P. aeruginosa
# Procedure: as §2
# Staphylococcus aureus [16] = assay: as above; format: cell-based; details: S. aureus
# Procedure: as §2
# Fusobacterium nucleatum [17] = assay: as above; format: cell-based; details: F. nucleatum
# Procedure: as §2
# Fusobacterium nucleatum [18] = assay: MIC microdilution assay; format: cell-based; details: Fusobacterium nucleatum, F. nucleatum
# Staphylococcus aureus [19] = assay: MIC microdilution assay; format: cell-based; details: S. aureus, agent alone, read-out: MIC of the antimicrobial agents alone
# Streptococcus mutans [20] = assay: Combination determination (FIC, MIC in combination); format: cell-based; details: S. mutans
# Procedure: as §2
# CHX was diluted from left to right at 10 to 0.08 μg ml^−1 ([…] 1 to 8), berberine was diluted from top to bottom at 250 to 0.09 μg ml^−1 ([…] 1 to 8). Column 9 was the cell control, column 10 was berberine alone (250 to 0.09 μg ml^−1); and column 11 was CHX alone (10 to 0.08 μg ml^−1). Row H was the solvent control (8% DMSO, H1 to H8). Column 12 was the media blank. The dilution assay was designed such that A1 contained the highest concentration of both agents (berberine 250 μg ml^−1 and CHX 10 μg ml^−1). The final concentration of berberine in wells A2 to A8 was […]. The FIC value was calculated from well C6. FIC was calculated by: (MIC Acombination/MIC Aalone)+(MIC Bcombination/MIC Balone).
# Streptococcus mutans [21] = assay: MIC microdilution assay; format: cell-based; details: Streptococcus mutans, S. mutans
# Porphymonas gingivalis [22] = assay: MIC microdilution assay; format: cell-based; details: Porphyromonas gingivalis, P. gingivalis
# Streptococcus gordonii [23] = assay: MIC microdilution assay; format: cell-based; details: Streptococcus gordonii, S. gordonii
# Escherichia coli [24] = assay: MIC microdilution assay; format: cell-based; details: E. coli, agent alone, read-out: MIC of the antimicrobial agents alone
# Pseudomonas aeruginosa [25] = assay: MIC microdilution assay; format: cell-based; details: Pseudomonas aeruginosa; P. aeruginosa; agent alone; read-out: MIC of the antimicrobial agents alone
# [26] = rats; oral; tritiated; cited from earlier work
# wild type S. aureus = details: cited from earlier work
# [27] = agar with 62.5, 125, 250 μg ml^−1, 48 hours at 37° C.
# [28] = berberine (B-CG) combined with CHX, Tet or Dox, MIC of the named agent in the combination
# [29] = berberine hydrochloride / chloride
# [30] = agent alone, read-out: MIC of the antimicrobial agents alone
structure (smiles),measurement,setting,value
"COc1ccc2cc3[n+](cc2c1OC)CCc1cc2c(cc1-3)OCO2 [B-CG, berberine chloride]",Concentration of B-CG in agar at which growth occurred,S. gordonii [1]; [27],62.5 µg/mL
same,Typical reduction scores on relative cell surface hydrophobicity,S. mutans [2]; berberine 500 μg ml^−1,14.8%
same,Typical reduction scores on relative cell surface hydrophobicity,F. nucleatum [3]; berberine 500 μg ml^−1,29.9%
same,Viability after 60 min exposure (mean Log10 reduction of CFU),F. nucleatum [4]; B-CG (500) μg ml^−1,2.77 Log10
same,Viability after 60 min exposure (mean Log10 reduction of CFU),F. nucleatum [4]; B-CG (1000) μg ml^−1,3.22 Log10
same,Viability after 60 min exposure (mean Log10 reduction of CFU),S. mutans [5]; B-CG (500) μg ml^−1,0 Log10
same,Viability after 60 min exposure (mean Log10 reduction of CFU),S. mutans [5]; B-CG (1000) μg ml^−1,1 Log10
same,Typical reduction scores on relative cell surface hydrophobicity,S. gordonii [6]; berberine 500 μg ml^−1,26.1%
same,Typical reduction scores on relative cell surface hydrophobicity,P. gingivalis; berberine 500 μg ml^−1,26.7%
same,Typical reduction scores on relative cell surface hydrophobicity,A. actinomycetemcomitans [7]; berberine 500 μg ml^−1,−31.6%
same,Concentration of B-CG in agar at which growth occurred,S. mutans [8]; [27],62.5 µg/mL
"N#CC(C#N)=NNc1cccc(Cl)c1 [CCCP, carbonyl cyanide m-chlorophenylhydrazone]",Effect on berberine accumulation,A. actinomycetemcomitans [9],very rapid and marked increase in berberine accumulation
"[H]/N=C(\N/C(=N/[H])NCCCCCCNC(=N)NC(=N)Nc1ccc(Cl)cc1)Nc1ccc(Cl)cc1 [CHX, chlorhexidine gluconate]",Growth inhibition effect when combined with berberine,oral pathogens,synergistic
same,Typical reduction scores on relative cell surface hydrophobicity,S. mutans [2]; agent alone 5 μg ml^−1,5.1%
same,MIC,"[10]; A. actinomycetemcomitans grown under anaerobic conditions, agent alone, read-out: MIC of the antimicrobial agents alone",50 µg/mL
same,MIC,"[10]; Aa, A. actinomycetemcomitans, read-out: MIC of Goldenseal Alkaloids Against Selected Oral Pathogens",50 µg/mL
same,Typical reduction scores on relative cell surface hydrophobicity,F. nucleatum [3]; agent alone 5 μg ml^−1,3.7%
same,Viability after 60 min exposure (mean Log10 reduction of CFU),F. nucleatum [4]; CHX (20),3.09* Log10
same,Viability after 60 min exposure (mean Log10 reduction of CFU),S. mutans [5]; CHX (20) μg ml^−1,1.69 Log10
same,Effect on the relative hydrophobicity of the cells,test bacteria,did not appear to affect
same,MIC of the antimicrobial agents in combination,Escherichia coli [11]; [28],0.63 µg/mL
same,Growth inhibition effect when combined with berberine,Escherichia coli [11]; [29],synergistic
same,Approximate amount of antibiotic required when combined with berberine relative to when the agent is used alone,Escherichia coli [11]; fraction of the amount alone,½
same,MIC of the antimicrobial agents in combination,Porphymonas gingivalis [12]; [28],0.08 µg/mL
same,Approximate amount of antibiotic required when combined with berberine relative to when the agent is used alone,Porphymonas gingivalis [12]; fraction of the amount alone,<½
same,MIC of the antimicrobial agents in combination,Streptococcus gordonii [13]; [28],0.63 µg/mL
same,Approximate amount of antibiotic required when combined with berberine relative to when the agent is used alone,Streptococcus gordonii [13]; fraction of the amount alone,<½
same,MIC of the antimicrobial agents in combination,[14],50 µg/mL
same,Interaction when combined with berberine,Pseudomonas aeruginosa [15],no clear additive or synergistic effect
same,MIC of the antimicrobial agents in combination,"Pseudomonas aeruginosa [15]; berberine combined with CHX or Col, MIC of the named agent in the combination",3.13** μg ml^−1
same,MIC of the antimicrobial agents in combination,Staphylococcus aureus [16]; [28],0.63 µg/mL
same,Growth inhibition effect when combined with berberine,Staphylococcus aureus [16]; [29],synergistic
same,Approximate amount of antibiotic required when combined with berberine relative to when the agent is used alone,Staphylococcus aureus [16]; fraction of the amount alone,½
same,MIC of the antimicrobial agents in combination,Fusobacterium nucleatum [17]; [28],0.31 µg/mL
same,Approximate amount of antibiotic required when combined with berberine relative to when the agent is used alone,Fusobacterium nucleatum [17]; fraction of the amount alone,<½
same,MIC,Fusobacterium nucleatum [18]; [30],2.5 µg/mL
same,MIC,"Fusobacterium nucleatum [18]; Fn, read-out: MIC of Goldenseal Alkaloids Against Selected Oral Pathogens",2.5 µg/mL
same,MIC,Staphylococcus aureus [19],2.5 µg/mL
same,MIC of the antimicrobial agents in combination,Streptococcus mutans [20]; [28],0.04 µg/mL
same,Approximate amount of antibiotic required when combined with berberine relative to when the agent is used alone,Streptococcus mutans [20]; fraction of the amount alone,<½
same,MIC alone used for the FIC,"Streptococcus mutans [20]; same plate, 48 h",1.25 µg/mL
same,MIC in combination used for the FIC,"Streptococcus mutans [20]; well C6, berberine (B-G) with CHX, 48 h",0.3125 µg/mL
same,MIC,Streptococcus mutans [21]; [30],1.25 µg/mL
same,MIC,"Streptococcus mutans [21]; Sm, read-out: MIC of Goldenseal Alkaloids Against Selected Oral Pathogens",1.25 µg/mL
same,Typical reduction scores on relative cell surface hydrophobicity,S. gordonii [6]; agent alone 5 μg ml^−1,−6.3%
same,Typical reduction scores on relative cell surface hydrophobicity,P. gingivalis; agent alone 5 μg ml^−1,−2.7%
same,Typical reduction scores on relative cell surface hydrophobicity,A. actinomycetemcomitans [7]; agent alone 5 μg ml^−1,−2.6%
same,MIC,Porphymonas gingivalis [22]; [30],1.25 µg/mL
same,MIC,"Porphymonas gingivalis [22]; Pg, read-out: MIC of Goldenseal Alkaloids Against Selected Oral Pathogens",2.5 µg/mL
same,MIC,Streptococcus gordonii [23]; [30],5 µg/mL
same,MIC,"Streptococcus gordonii [23]; Sg, read-out: MIC of Goldenseal Alkaloids Against Selected Oral Pathogens",5 µg/mL
same,MIC,Escherichia coli [24],1.25 µg/mL
same,MIC,Pseudomonas aeruginosa [25],6.25 µg/mL
COc1ccc2cc3[n+](cc2c1OC)CCc1cc2c(cc1-3)OCO2 [berberine chloride],Excretion after 48 hours,[26],majority of the administered dose had been excreted in feces
same,Time of peak levels in liver and muscles,[26],12 h
"CN(C)c1ccc2nc3ccc(=[N+](C)C)cc-3sc2c1 [methylene blue (MB), methylene blue]",Growth on agar in the presence of methylene blue,S. gordonii [1]; 50 μg/ml,did not grow
same,Growth on agar in the presence of methylene blue,S. mutans [8]; 50 μg/ml,did not grow
COC(=O)[C@H]1[C@H]2C[C@@H]3c4[nH]c5cc(OC)ccc5c4CCN3C[C@H]2C[C@@H](OC(=O)c2cc(OC)c(OC)c(OC)c2)[C@@H]1OC [reserpine],Inhibition of the efflux of norfloxacin,wild type S. aureus,at least four
